In patent US11945822B2, “Pyrazolo-triazine and/or pyrazolo-pxrimidine derivatives as selective inhibitor of cyclin dependent kinase” (QURIENT CO., LTD., priority 2018, dated 2024):
pIC50: −log10 of the molar value.

target: T1, CDK1/Cyclin B (Homo sapiens, UniProt P06493); experiment: Enzymatic assay for CDK1 (FRET based LANCE Ultra kinase assay); format: biochemical; details: read-out: CDK1 enzymatic activity (IC50 range)
T1 construct: purchased Invitrogen PR4768C
Method in brief: (§1)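 Each CDK complex ([…]) phosphorylated 68 nM ULight-MBP peptide with ATP at Km for 60 min at 23° C., against 8 compound doses (4-fold dilutions). EDTA/Eu-anti-phospho-MBP detection, 60 min, then TR-FRET emission at 615 and 665 nm.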

T1 sequence (P06493 whole entry): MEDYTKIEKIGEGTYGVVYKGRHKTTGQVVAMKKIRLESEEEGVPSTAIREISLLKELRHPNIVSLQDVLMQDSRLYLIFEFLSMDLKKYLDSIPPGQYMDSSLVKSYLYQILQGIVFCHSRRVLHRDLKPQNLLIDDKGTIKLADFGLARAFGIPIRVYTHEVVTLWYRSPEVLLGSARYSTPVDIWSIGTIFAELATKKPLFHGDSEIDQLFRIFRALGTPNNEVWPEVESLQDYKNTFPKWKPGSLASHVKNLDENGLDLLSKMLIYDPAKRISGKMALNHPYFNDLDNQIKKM
T1 sequence (P14635 whole entry partner): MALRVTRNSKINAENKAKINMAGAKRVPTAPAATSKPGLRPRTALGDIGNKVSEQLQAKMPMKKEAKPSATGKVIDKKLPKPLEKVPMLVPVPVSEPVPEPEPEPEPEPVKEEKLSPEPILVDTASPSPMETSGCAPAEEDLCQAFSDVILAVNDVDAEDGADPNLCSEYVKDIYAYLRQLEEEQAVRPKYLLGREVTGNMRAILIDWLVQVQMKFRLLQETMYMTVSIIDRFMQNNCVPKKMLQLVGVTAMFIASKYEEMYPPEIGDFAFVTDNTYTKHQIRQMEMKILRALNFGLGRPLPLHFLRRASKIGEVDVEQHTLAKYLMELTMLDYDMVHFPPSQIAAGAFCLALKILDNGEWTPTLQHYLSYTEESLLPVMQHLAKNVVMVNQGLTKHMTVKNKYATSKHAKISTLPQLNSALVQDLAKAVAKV

Row | pIC50 | SMILES
1 | 6.00 to 7.00 | CC(C)c1cnn2c(NCc3ccccc3-n3cc4cc(F)ccc4n3)nc(N3CCC(N)CC3)nc12 [Compound 108]
2 | < 6.00 | Cc1cccc(-n2cccn2)c1CNc1nc(N2CCC(N)CC2)nc2c(C(C)C)cnn12 [Compound 43]
3 | 6.00 to 7.00 | CC(C)c1cnn2c(NCc3ccccc3-n3cc4ccccc4n3)nc(N3CCC(N)CC3)nc12 [Compound 72]

target: T2, CDK2/Cyclin A (Homo sapiens, UniProt P24941); experiment: Enzymatic assay for CDK2 (FRET based LANCE Ultra kinase assay); format: biochemical; details: read-out: CDK2 enzymatic activity (IC50 range)
T2 construct: purchased Invitrogen PV6290
Method in brief: as §1

Row | pIC50 | SMILES
4 | 6.00 to 7.00 | CC(C)c1cnn2c(NCc3ccccc3-n3cc4cc(F)ccc4n3)nc(N3CCC(N)CC3)nc12 [Compound 108]
5 | < 6.00 | Cc1cccc(-n2cccn2)c1CNc1nc(N2CCC(N)CC2)nc2c(C(C)C)cnn12 [Compound 43]
6 | 6.00 to 7.00 | CC(C)c1cnn2c(NCc3ccccc3-n3cc4ccccc4n3)nc(N3CCC(N)CC3)nc12 [Compound 72]

target: T3, CDK5/p25 (Homo sapiens, UniProt Q00535); experiment: Enzymatic assay for CDK5 (FRET based LANCE Ultra kinase assay); format: biochemical; details: read-out: CDK5 enzymatic activity (IC50 range)
T3 construct: purchased Invitrogen PR8543B
Method in brief: as §1

T3 sequence (Q00535 whole entry): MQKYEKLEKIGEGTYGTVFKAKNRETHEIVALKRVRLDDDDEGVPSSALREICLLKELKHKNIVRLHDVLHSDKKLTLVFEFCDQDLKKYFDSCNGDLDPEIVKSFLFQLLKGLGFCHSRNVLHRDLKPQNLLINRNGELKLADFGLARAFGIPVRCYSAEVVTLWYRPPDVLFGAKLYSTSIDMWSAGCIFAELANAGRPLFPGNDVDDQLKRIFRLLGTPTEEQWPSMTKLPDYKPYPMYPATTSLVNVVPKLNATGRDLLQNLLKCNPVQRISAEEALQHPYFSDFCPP
T3 sequence (Q15078 99-307 partner limits assumed): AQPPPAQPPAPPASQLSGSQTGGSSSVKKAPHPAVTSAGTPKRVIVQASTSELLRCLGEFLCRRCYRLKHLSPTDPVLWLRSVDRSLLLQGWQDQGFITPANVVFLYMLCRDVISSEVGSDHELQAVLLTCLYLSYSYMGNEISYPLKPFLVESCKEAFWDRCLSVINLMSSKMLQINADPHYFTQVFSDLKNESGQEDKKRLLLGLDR

Row | pIC50 | SMILES
7 | 6.00 to 7.00 | CC(C)c1cnn2c(NCc3ccccc3-n3cc4cc(F)ccc4n3)nc(N3CCC(N)CC3)nc12 [Compound 108]
8 | < 6.00 | Cc1cccc(-n2cccn2)c1CNc1nc(N2CCC(N)CC2)nc2c(C(C)C)cnn12 [Compound 43]
9 | 6.00 to 7.00 | CC(C)c1cnn2c(NCc3ccccc3-n3cc4ccccc4n3)nc(N3CCC(N)CC3)nc12 [Compound 72]

target: T4, CDK7/Cyclin H/MNAT1 (Homo sapiens, UniProt P50613); experiment: Enzymatic assay for CDK7 (FRET based LANCE Ultra kinase assay); format: biochemical; details: CDK7 over CDK1
T4 construct: purchased Invitrogen PR6749B
Method in brief: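 Inhibition was measured at Km ATP by time-resolved FRET between a Eu anti-phospho antibody and a phosphorylated ULight peptide. The enzyme was the purified CDK7/cyclin complex, and data were curve-fitted.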

T4 sequence (P50613 whole entry): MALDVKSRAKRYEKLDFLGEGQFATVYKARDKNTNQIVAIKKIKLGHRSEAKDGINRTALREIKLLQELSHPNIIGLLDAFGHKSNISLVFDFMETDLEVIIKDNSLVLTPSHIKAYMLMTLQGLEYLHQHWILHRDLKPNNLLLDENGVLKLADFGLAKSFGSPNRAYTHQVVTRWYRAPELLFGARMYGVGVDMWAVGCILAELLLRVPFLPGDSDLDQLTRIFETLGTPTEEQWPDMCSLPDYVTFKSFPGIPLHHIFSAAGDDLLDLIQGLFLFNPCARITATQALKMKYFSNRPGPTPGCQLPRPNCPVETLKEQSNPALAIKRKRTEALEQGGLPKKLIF
T4 sequence (P51946 whole entry partner): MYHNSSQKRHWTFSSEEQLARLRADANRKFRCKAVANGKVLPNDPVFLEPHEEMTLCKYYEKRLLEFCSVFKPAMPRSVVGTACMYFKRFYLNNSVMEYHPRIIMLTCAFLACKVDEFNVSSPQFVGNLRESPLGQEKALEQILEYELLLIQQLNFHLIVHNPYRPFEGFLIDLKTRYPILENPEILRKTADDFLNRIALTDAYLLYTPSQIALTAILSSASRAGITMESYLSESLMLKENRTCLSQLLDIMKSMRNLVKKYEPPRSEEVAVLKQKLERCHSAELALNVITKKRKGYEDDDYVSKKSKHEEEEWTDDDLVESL
T4 sequence (P51948 whole entry partner): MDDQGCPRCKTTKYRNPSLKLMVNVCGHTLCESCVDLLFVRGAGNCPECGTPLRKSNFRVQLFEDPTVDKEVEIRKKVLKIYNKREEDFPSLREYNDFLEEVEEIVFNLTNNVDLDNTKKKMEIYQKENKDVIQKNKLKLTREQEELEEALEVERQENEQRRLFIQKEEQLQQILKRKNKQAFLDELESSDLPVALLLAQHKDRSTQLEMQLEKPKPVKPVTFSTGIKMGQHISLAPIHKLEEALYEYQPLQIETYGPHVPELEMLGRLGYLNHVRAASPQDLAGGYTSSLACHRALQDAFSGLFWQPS

Row | CDK1/CDK7: Selectivity of CDK7 inhibition over CDK1 inhibition | SMILES
10 | A (A=greater than 200 fold) | Cc1cccc(-n2cccn2)c1CNc1nc(N2CCC(N)CC2)nc2c(C(C)C)cnn12 [Compound 43]
11 | A (A=greater than 200 fold) | CC(C)c1cnn2c(NCc3ccccc3-n3cc4ccccc4n3)nc(N3CCC(N)CC3)nc12 [Compound 72]

Row | SMILES | CDK1/CDK7: Selectivity of CDK7 inhibition over CDK1 inhibition
12 | CC(C)c1cnn2c(NCc3ccccc3-n3cc4cc(F)ccc4n3)nc(N3CCC(N)CC3)nc12 [Compound 108] | B (B=less than 200 fold, but greater than 20 fold)

same assay, conditions: CDK7 over CDK2

Row | SMILES | CDK2/CDK7: Selectivity of CDK7 inhibition over CDK2 inhibition
13 | CC(C)c1cnn2c(NCc3ccccc3-n3cc4cc(F)ccc4n3)nc(N3CCC(N)CC3)nc12 [Compound 108] | B (B=less than 200 fold, but greater than 20 fold)
14 | Cc1cccc(-n2cccn2)c1CNc1nc(N2CCC(N)CC2)nc2c(C(C)C)cnn12 [Compound 43] | A (A=greater than 200 fold)
15 | CC(C)c1cnn2c(NCc3ccccc3-n3cc4ccccc4n3)nc(N3CCC(N)CC3)nc12 [Compound 72] | B (B=less than 200 fold, but greater than 20 fold)

same assay, conditions: CDK7 over CDK5

Row | SMILES | CDK5/CDK7: Selectivity of CDK7 inhibition over CDK5 inhibition
16 | CC(C)c1cnn2c(NCc3ccccc3-n3cc4cc(F)ccc4n3)nc(N3CCC(N)CC3)nc12 [Compound 108] | B (B=less than 200 fold, but greater than 20 fold)
17 | Cc1cccc(-n2cccn2)c1CNc1nc(N2CCC(N)CC2)nc2c(C(C)C)cnn12 [Compound 43] | A (A=greater than 200 fold)
18 | CC(C)c1cnn2c(NCc3ccccc3-n3cc4ccccc4n3)nc(N3CCC(N)CC3)nc12 [Compound 72] | B (B=less than 200 fold, but greater than 20 fold)

same assay, conditions: read-out: CDK7 enzymatic activity (IC50 range)

Row | pIC50 | SMILES
19 | > 7.00 | CC(C)c1cnn2c(NCc3ccccc3-n3cc4cc(F)ccc4n3)nc(N3CCC(N)CC3)nc12 [Compound 108]
20 | > 7.00 | Cc1cccc(-n2cccn2)c1CNc1nc(N2CCC(N)CC2)nc2c(C(C)C)cnn12 [Compound 43]
21 | > 7.00 | CC(C)c1cnn2c(NCc3ccccc3-n3cc4ccccc4n3)nc(N3CCC(N)CC3)nc12 [Compound 72]

test system: HCT116; experiment: Cellular HCT116 viability assay (CellTiter-Glo, 72 hours); format: cell-based; details: Homo sapiens, HCT-116
Method in brief: (§2)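 Mycoplasma-tested cells, seeded at densities chosen for each line, received compound or DMSO vehicle (under 0.1% final) for 72 hours. Duplicate cultures were then read for viability by CellTiter-Glo luminescence.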

Row | pIC50 | SMILES
22 | > 6.00 | CC(C)c1cnn2c(NCc3ccccc3-n3cc4cc(F)ccc4n3)nc(N3CCC(N)CC3)nc12 [Compound 108]
23 | > 6.00 | Cc1cccc(-n2cccn2)c1CNc1nc(N2CCC(N)CC2)nc2c(C(C)C)cnn12 [Compound 43]
24 | > 6.00 | CC(C)c1cnn2c(NCc3ccccc3-n3cc4ccccc4n3)nc(N3CCC(N)CC3)nc12 [Compound 72]

test system: H460; experiment: Cellular H460 viability assay (CellTiter-Glo, 72 hours); format: cell-based; details: Homo sapiens, NCI-H460
Method in brief: as §2

Row | pIC50 | SMILES
25 | > 6.00 | CC(C)c1cnn2c(NCc3ccccc3-n3cc4cc(F)ccc4n3)nc(N3CCC(N)CC3)nc12 [Compound 108]
26 | > 6.00 | Cc1cccc(-n2cccn2)c1CNc1nc(N2CCC(N)CC2)nc2c(C(C)C)cnn12 [Compound 43]
27 | > 6.00 | CC(C)c1cnn2c(NCc3ccccc3-n3cc4ccccc4n3)nc(N3CCC(N)CC3)nc12 [Compound 72]

test system: MM.1S; experiment: Cellular MM.1S viability assay (CellTiter-Glo, 72 hours); format: cell-based; details: Homo sapiens, MM1.S
Method in brief: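 Compound exposure lasted 72 h at 37° C, 5% CO2, over 0.0015–10 uM, DMSO kept under 0.1%, with dosing 24 h after seeding. Seeding: A2780 1×10^3, OVCAR-3 5×10^3, MM.1S 1×10^4 cells/well in 10% FBS RPMI-1640. Duplicate CellTiter-Glo luminescence readout.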

Row | pIC50 | SMILES
28 | ≥ 6.00 | CC(C)c1cnn2c(NCc3ccccc3-n3cc4cc(F)ccc4n3)nc(N3CCC(N)CC3)nc12 [Compound 108]
29 | 5.00 to 6.00 | Cc1cccc(-n2cccn2)c1CNc1nc(N2CCC(N)CC2)nc2c(C(C)C)cnn12 [Compound 43]
30 | ≥ 6.00 | CC(C)c1cnn2c(NCc3ccccc3-n3cc4ccccc4n3)nc(N3CCC(N)CC3)nc12 [Compound 72]

test system: MV4-11; experiment: Cellular MV4-11 viability assay (CellTiter-Glo, 72 hours); format: cell-based; details: Homo sapiens
Method in brief: as §2

Row | pIC50 | SMILES
31 | > 6.00 | CC(C)c1cnn2c(NCc3ccccc3-n3cc4cc(F)ccc4n3)nc(N3CCC(N)CC3)nc12 [Compound 108]
32 | > 6.00 | Cc1cccc(-n2cccn2)c1CNc1nc(N2CCC(N)CC2)nc2c(C(C)C)cnn12 [Compound 43]
33 | > 6.00 | CC(C)c1cnn2c(NCc3ccccc3-n3cc4ccccc4n3)nc(N3CCC(N)CC3)nc12 [Compound 72]

test system: MOLT-4; experiment: Cellular MOLT-4 viability assay (CellTiter-Glo, 72 hours); format: cell-based; details: Homo sapiens, MOLT4 viability assay
Method in brief: as §2

Row | pIC50 | SMILES
34 | 5.00 to 6.00 | CC(C)c1cnn2c(NCc3ccccc3-n3cc4cc(F)ccc4n3)nc(N3CCC(N)CC3)nc12 [Compound 108]
35 | 5.00 to 6.00 | Cc1cccc(-n2cccn2)c1CNc1nc(N2CCC(N)CC2)nc2c(C(C)C)cnn12 [Compound 43]
36 | > 6.00 | CC(C)c1cnn2c(NCc3ccccc3-n3cc4ccccc4n3)nc(N3CCC(N)CC3)nc12 [Compound 72]

test system: RPMI-8226; experiment: Cellular RPMI-8226 viability assay (CellTiter-Glo, 72 hours); format: cell-based; details: Homo sapiens
Method in brief: as §2

Row | pIC50 | SMILES
37 | > 6.00 | CC(C)c1cnn2c(NCc3ccccc3-n3cc4cc(F)ccc4n3)nc(N3CCC(N)CC3)nc12 [Compound 108]
38 | 5.00 to 6.00 | Cc1cccc(-n2cccn2)c1CNc1nc(N2CCC(N)CC2)nc2c(C(C)C)cnn12 [Compound 43]
39 | > 6.00 | CC(C)c1cnn2c(NCc3ccccc3-n3cc4ccccc4n3)nc(N3CCC(N)CC3)nc12 [Compound 72]
